Measurements: PubChem BioAssay (NCI)
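A five-concentration, 48-hour dose response in 96-well plates underlies each endpoint, interpolated linearly between surrounding concentrations. Definition used: TGI = concentration required for complete inhibition of growth.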

Legend:
Assay in all cases: NCI tumour cell line growth inhibition, 48 h
786-0 renal = test system: 786-0 renal
A498 renal = test system: A498 renal
A549 NSCLC = test system: A549 NSCLC
ACHN renal = test system: ACHN renal
CAKI-1 renal = test system: CAKI-1 renal
CCRF-CEM leukemia = test system: CCRF-CEM leukemia
COLO 205 colon = test system: COLO 205 colon
DLD-1 colon = test system: DLD-1 colon
DMS 114 small cell lung = test system: DMS 114 small cell lung
DMS 273 small cell lung = test system: DMS 273 small cell lung
EKVX NSCLC = test system: EKVX NSCLC
HCC-2998 colon = test system: HCC-2998 colon
HCT-116 colon = test system: HCT-116 colon
HCT-15 colon = test system: HCT-15 colon
HL-60(TB) leukemia = test system: HL-60(TB) leukemia
HOP-18 NSCLC = test system: HOP-18 NSCLC
HOP-62 NSCLC = test system: HOP-62 NSCLC
HOP-92 NSCLC = test system: HOP-92 NSCLC
HT29 colon = test system: HT29 colon
IGROV1 ovarian = test system: IGROV1 ovarian
K-562 leukemia = test system: K-562 leukemia
KM12 colon = test system: KM12 colon
KM20L2 colon = test system: KM20L2 colon
LXFL 529 NSCLC = test system: LXFL 529 NSCLC
M14 melanoma = test system: M14 melanoma
M19-MEL melanoma = test system: M19-MEL melanoma
MALME-3M melanoma = test system: MALME-3M melanoma
MOLT-4 leukemia = test system: MOLT-4 leukemia
NCI-H226 lung = test system: NCI-H226 lung
NCI-H23 lung = test system: NCI-H23 lung
NCI-H460 lung = test system: NCI-H460 lung
NCI-H522 lung = test system: NCI-H522 lung
OVCAR-4 ovarian = test system: OVCAR-4 ovarian
OVCAR-5 ovarian = test system: OVCAR-5 ovarian
OVCAR-8 ovarian = test system: OVCAR-8 ovarian
RXF 393 renal = test system: RXF 393 renal
SF-268 CNS = test system: SF-268 CNS
SF-295 CNS = test system: SF-295 CNS
SF-539 CNS = test system: SF-539 CNS
SK-MEL-2 melanoma = test system: SK-MEL-2 melanoma
SK-MEL-28 melanoma = test system: SK-MEL-28 melanoma
SK-MEL-5 melanoma = test system: SK-MEL-5 melanoma
SK-OV-3 ovarian = test system: SK-OV-3 ovarian
SN12C renal = test system: SN12C renal
SNB-19 CNS = test system: SNB-19 CNS
SNB-75 CNS = test system: SNB-75 CNS
SNB-78 CNS = test system: SNB-78 CNS
SR leukemia = test system: SR leukemia
TK-10 renal = test system: TK-10 renal
U251 CNS = test system: U251 CNS
UACC-257 melanoma = test system: UACC-257 melanoma
UACC-62 melanoma = test system: UACC-62 melanoma
UO-31 renal = test system: UO-31 renal
XF 498 CNS = test system: XF 498 CNS
LOX IMVI melanoma = test system: LOX IMVI melanoma
OVCAR-3 ovarian = test system: OVCAR-3 ovarian
RPMI-8226 leukemia = test system: RPMI-8226 leukemia
RXF-631 renal = test system: RXF-631 renal
SW-620 colon = test system: SW-620 colon

For `COC(=O)[C@@]12OC[C@]34C([C@@H](O)C1O)[C@@]1(C)CC(=O)C(O)=C(C)C1C[C@H]3OC(=O)[C@H](OC(=O)/C=C(/c1ccccc1)C(F)(F)F)[C@H]42` (stereo partly specified), the TGI (786-0 renal) was greater than 25 µM, the TGI (A498 renal) was 8.45 µM and the TGI (A549 NSCLC) was 20.2 µM. For the same molecule, the TGI (ACHN renal) was 17.5 µM, the TGI (CAKI-1 renal) was greater than 25 µM and the TGI (CCRF-CEM leukemia) was greater than 25 µM. It also gave a TGI (COLO 205 colon) of 21.1 µM, a TGI (DLD-1 colon) greater than 25 µM and a TGI (DMS 114 small cell lung) of 17 µM. It also gave a TGI (DMS 273 small cell lung) of 4.87 µM, a TGI (EKVX NSCLC) greater than 25 µM and a TGI (HCC-2998 colon) of 8.04 µM. The TGI (HCT-116 colon) was 12.3 µM, the TGI (HCT-15 colon) was greater than 25 µM and the TGI (HL-60(TB) leukemia) was 1.41 µM. It also gave a TGI (HOP-18 NSCLC) greater than 25 µM, a TGI (HOP-62 NSCLC) greater than 25 µM and a TGI (HOP-92 NSCLC) of 17.1 µM. It also gave a TGI (HT29 colon) of 15 µM, a TGI (IGROV1 ovarian) of 11.5 µM and a TGI (K-562 leukemia) greater than 25 µM. It also gave a TGI (KM12 colon) greater than 25 µM, a TGI (KM20L2 colon) of 14 µM and a TGI (LXFL 529 NSCLC) of 15.3 µM. The TGI (M14 melanoma) was 8.48 µM, the TGI (M19-MEL melanoma) was 11 µM and the TGI (MALME-3M melanoma) was 5.71 µM. The TGI (MOLT-4 leukemia) was 13.8 µM, the TGI (NCI-H226 lung) was 11.7 µM and the TGI (NCI-H23 lung) was 6.73 µM. It also gave a TGI (NCI-H460 lung) of 6.71 µM, a TGI (NCI-H522 lung) of 13.7 µM and a TGI (OVCAR-4 ovarian) greater than 25 µM. For the same molecule, the TGI (OVCAR-5 ovarian) was greater than 25 µM, the TGI (OVCAR-8 ovarian) was greater than 25 µM and the TGI (RXF 393 renal) was 17.5 µM. It also gave a TGI (SF-268 CNS) greater than 25 µM, a TGI (SF-295 CNS) of 12.7 µM and a TGI (SF-539 CNS) of 3.75 µM. For the same molecule, the TGI (SK-MEL-2 melanoma) was greater than 25 µM, the TGI (SK-MEL-28 melanoma) was 15.9 µM and the TGI (SK-MEL-5 melanoma) was 13.4 µM. For the same molecule, the TGI (SK-OV-3 ovarian) was greater than 25 µM, the TGI (SN12C renal) was greater than 25 µM and the TGI (SNB-19 CNS) was 14.2 µM. The TGI (SNB-75 CNS) was 18.6 µM, the TGI (SNB-78 CNS) was greater than 25 µM and the TGI (SR leukemia) was 2.28 µM. It also gave a TGI (TK-10 renal) greater than 25 µM, a TGI (U251 CNS) greater than 25 µM and a TGI (UACC-257 melanoma) greater than 25 µM. The TGI (UACC-62 melanoma) was 7.31 µM, the TGI (UO-31 renal) was greater than 25 µM and the TGI (XF 498 CNS) was 10.6 µM.

`CSc1nc(SC)c2c(C(N)=S)[nH]nc2n1` showed a TGI (786-0 renal) greater than 100 µM, a TGI (A498 renal) of 71.7 µM and a TGI (A549 NSCLC) of 65.6 µM. For the same molecule, the TGI (ACHN renal) was 74.7 µM, the TGI (CAKI-1 renal) was 56.5 µM and the TGI (CCRF-CEM leukemia) was 69.5 µM. The TGI (COLO 205 colon) was 35.7 µM, the TGI (DLD-1 colon) was greater than 100 µM and the TGI (DMS 114 small cell lung) was 83 µM. The TGI (DMS 273 small cell lung) was 98.3 µM, the TGI (EKVX NSCLC) was 56 µM and the TGI (HCT-15 colon) was greater than 100 µM. It also gave a TGI (HOP-62 NSCLC) of 58.5 µM, a TGI (HOP-92 NSCLC) of 50.4 µM and a TGI (HT29 colon) greater than 100 µM. For the same molecule, the TGI (IGROV1 ovarian) was 94.4 µM, the TGI (K-562 leukemia) was 78.9 µM and the TGI (KM12 colon) was greater than 100 µM. The TGI (KM20L2 colon) was 85 µM, the TGI (LOX IMVI melanoma) was 62.7 µM and the TGI (LXFL 529 NSCLC) was greater than 100 µM. The TGI (M14 melanoma) was greater than 100 µM, the TGI (M19-MEL melanoma) was 91.7 µM and the TGI (MALME-3M melanoma) was 88 µM. For the same molecule, the TGI (MOLT-4 leukemia) was 99.3 µM, the TGI (NCI-H226 lung) was 62.6 µM and the TGI (NCI-H23 lung) was 66.3 µM. It also gave a TGI (NCI-H460 lung) of 64.8 µM, a TGI (OVCAR-3 ovarian) of 57.8 µM and a TGI (OVCAR-4 ovarian) of 55.8 µM. The TGI (OVCAR-8 ovarian) was greater than 100 µM, the TGI (RPMI-8226 leukemia) was 67.8 µM and the TGI (RXF 393 renal) was 61 µM. It also gave a TGI (RXF-631 renal) of 93.7 µM, a TGI (SF-268 CNS) greater than 100 µM and a TGI (SF-295 CNS) of 48.1 µM. The TGI (SF-539 CNS) was 60 µM, the TGI (SK-MEL-2 melanoma) was 50.5 µM and the TGI (SK-MEL-28 melanoma) was 99.5 µM. It also gave a TGI (SK-MEL-5 melanoma) of 34.1 µM, a TGI (SK-OV-3 ovarian) of 70.5 µM and a TGI (SN12C renal) greater than 100 µM. For the same molecule, the TGI (SNB-19 CNS) was 90 µM, the TGI (SNB-75 CNS) was 76.5 µM and the TGI (SNB-78 CNS) was 85.8 µM. The TGI (SR leukemia) was 87.1 µM, the TGI (SW-620 colon) was greater than 100 µM and the TGI (TK-10 renal) was 63.5 µM. It also gave a TGI (U251 CNS) of 46.1 µM, a TGI (UACC-257 melanoma) of 52.5 µM and a TGI (UACC-62 melanoma) of 55.6 µM. It also gave a TGI (UO-31 renal) of 49.6 µM.
